The species named for data set [1] is Homo sapiens. Description: Inhibition of His-tagged human recombinant BRPF1B bromodomain using biotinylated H4 (1 to 21)K5/8/12/16Ac peptide as substrate at 20 uM incubated for 0.5 hrs by AlphaScreen assay relative to control.
A short description of data set [2]: Inhibition of His-tagged human recombinant BRPF1B bromodomain using biotinylated H4 (1 to 21)K5/8/12/16Ac peptide as substrate incubated for 0.5 hrs by AlphaScreen assay.
The species entered for data set [3] is Homo sapiens. Briefly: Inhibition of His-tagged human recombinant BRPF1B bromodomain using biotinylated H4 (1 to 21)K5/8/12/16Ac peptide as substrate at 2 uM incubated for 0.5 hrs by AlphaScreen assay relative to control. On the technique in general: Alpha assays give light when donor and acceptor beads are brought close together.
Data set [4] in a line: Anti-osteoclastogensis activity in C57BL/6 mouse BMMC cells assessed as inhibition of RANKL/M-CSF-induced TRAP activity at 1 uM measured after 3 days by colorimetric assay (reference value: 0%). The class given is functional. Conditions: C57BL/6, BMMC, 72 h, time 3 day.
Data set [5] can be described thus: Cytotoxicity against C57BL/6 mouse BMMC cells assessed as cell viability at 10 uM measured after 48 hrs by CCK-8 assay (reference value: 100%). The class given is toxicity, cell-based. The settings on record: read-out: Activity.
The species named for data set [6] is Homo sapiens. Description: Binding affinity to BRPF1B (unknown origin) assessed as change in melting temperature at 10 uM by Differential scanning fluorimetry. A general note: DSF heats the sample and reads unfolding from a dye or from intrinsic fluorescence.
The test system of data set [7] is BMMC. Briefly: Anti-osteoclastogenesis activity in C57BL/6 mouse BMMC cells assessed as reduction of RANKL/M-CSF-induced osteoclast activation and differentiation by measuring F-actin ring formation with fewer and smaller nuclei measured after 5 days by F-actin staining based microscopic analysis. Conditions: time 5.0 day. The class given is functional, cell-based.

Data set [8] deals with BMMC. Briefly: Anti-osteoclastogenesis activity in C57BL/6 mouse BMMC cells assessed as reduction of RANKL/M-CSF-induced TRAP mRNA expression at 1 uM measured after 3 days by qRT-PCR analysis. Type of data set: functional, cell-based. The settings on record: time 3.0 day.
Data set [9] has as its system BMMC. Briefly: Anti-osteoclastogenesis activity in C57BL/6 mouse BMMC cells assessed as reduction of RANKL/M-CSF-induced osteoclast activation and differentiation by measuring decrease in F-actin ring formation measured after 5 days by F-actin staining based microscopic analysis. Type of data set: functional, cell-based. Conditions: time 5.0 day.
Data set [10] has as its system BMMC. Description: Anti-osteoclastogenesis activity in C57BL/6 mouse BMMC cells assessed as reduction of RANKL/M-CSF-induced bone resorption of osteoclasts by measuring decrease in pit areas treated for 7 days after seeding cells onto bone slices by toluidine blue staining based confocal laser microscopic analysis. The class given is functional, cell-based. Conditions: dose 0.625-10 µM, time 7.0 day.

The subject of data set [11] is BMMC. Briefly: Anti-osteoclastogenesis activity in C57BL/6 mouse BMMC cells assessed as reduction of RANKL/M-CSF-induced c-fos expression at 1 to 10 uM measured after 3 days by Western blot analysis. Type of data set: functional, cell-based. The settings on record: dose 1-10 µM, time 3.0 day. A general note: In western blotting, separated proteins are transferred to a membrane and probed.

For data set [12], the system named is BMMC. Briefly: Anti-osteoclastogenesis activity in C57BL/6 mouse BMMC cells assessed as reduction of RANKL/M-CSF-induced CTSK mRNA expression at 1 uM measured after 3 days by qRT-PCR analysis. Type of data set: functional, cell-based. Conditions: time 3.0 day.
Data set [13] relates to BMMC. Description: Anti-osteoclastogenesis activity in C57BL/6 mouse BMMC cells assessed as reduction of RANKL/M-CSF-induced NFATc1 mRNA expression at 1 uM measured after 3 days by qRT-PCR analysis. Type of data set: functional, cell-based. Conditions: time 3.0 day.
Data set [14] concerns BMMC. Briefly: Anti-osteoclastogenesis activity in C57BL/6 mouse BMMC cells assessed as reduction of RANKL/M-CSF-induced bone resorption of osteoclasts by measuring decrease in bone resorption pit formation treated for 7 days after seeding cells onto bone slices by toluidine blue staining based confocal laser microscopic analysis. Type of data set: functional, cell-based. The settings on record: dose 0.625-10 µM, time 7.0 day.

The test system of data set [15] is BMMC. Description: Anti-osteoclastogenesis activity in C57BL/6 mouse BMMC cells assessed as reduction of RANKL/M-CSF-induced c-fos mRNA expression measured after 3 days by qRT-PCR analysis. The class given is functional, cell-based. Conditions: dose 2.5-10 µM, time 3.0 day.
Data set [16] has as its system BMMC. Description: Anti-osteoclastogenesis activity in C57BL/6 mouse BMMC cells assessed as reduction of RANKL/M-CSF-induced osteoclast activation and differentiation measured after 5 days by TRAP staining based light microscopic analysis. The settings on record: for Activity: time 5.0 day. The class given is functional, cell-based.

The source made the active and inactive calls. The rule behind the calls is not given here.

The term inhibition denotes the change of the read-out against control, counted positive when it falls. As for `COC(=O)c1cc(NC(=O)Nc2cccc(C(F)(F)F)c2)c2[nH]c(C)c(C(C)=O)c2c1`, the inhibition in data set [1] is 82.3%.

In general, IC50 refers to the midpoint of a concentration-inhibition curve. Turning to `CCOC(=O)Nc1cc(C(=O)Nc2ccccc2)cc2c(C(C)=O)c(C)[nH]c12`, the half-maximal inhibitory concentration (IC50) in [2] was 1700 nM.

Turning to `CCNC(=O)Nc1cc(C(=O)OC)cc2c(C(C)=O)c(C)[nH]c12`, the inhibition is 100% in [1] and 42.2% in data set [3].

On to `COC(=O)c1cc(NC(=O)Nc2ccccc2)c2[nH]c(C)c(C(C)=O)c2c1`, for which the inhibition amounted to 100% in [1] and 17.6% in [3].

As for `CC(=O)c1c(C)[nH]c2c(N3CCCC3)cc(-c3cccnc3)cc12`, the inhibition at 1 µM in [4] came out at 40%. Further, the viability at 48 h, 10 µM in [5] worked out at 101%. The concentration for half-maximal inhibition (IC50) in data set [2] stood at 233 nM.

On to `CCOC(=O)Nc1cc(C(=O)NC)cc2c(C(C)=O)c(C)[nH]c12`, for which the inhibition at 1 µM in data set [4] is 36.8%. Besides, in data set [5], the viability at 48 h, 10 µM was 92.6%. Besides, the 50% inhibitory concentration (IC50) in data set [2] amounted to 908 nM.

As for `CC(=O)c1c(C)[nH]c2c(NC3CCNCC3)cc(-c3cccnc3)cc12`, in [4], the inhibition at 1 µM came out at 57.1%. Moreover, in data set [5], the viability at 48 h, 10 µM worked out at 94.9%. In [2], the IC50 amounted to 442 nM.

Take `CC(=O)c1c(C)[nH]c2c(N(C)C)cc(-c3ccccn3)cc12`: the inhibition at 1 µM in data set [4] is 100%. For the same compound, in data set [5], the viability at 48 h, 10 µM amounted to 28.9%. Also, in data set [2], the IC50 is 540 nM.

Take `CCOC(=O)Nc1cc(-c2ccccn2)cc2cc(C)[nH]c12`: the 50% inhibitory concentration (IC50) in data set [2] is above 10000 nM.

On to `CCNC(=O)Nc1cc(-c2cccnc2)cc2c(C(C)=O)c(C)[nH]c12`, for which the IC50 in [2] is 1440 nM.

As for `CCOC(=O)Nc1cc(-c2ccccc2)cc2c(C(C)=O)c(C)[nH]c12`, the inhibition at 1 µM in [4] was 0%. Besides, the viability at 48 h, 10 µM in data set [5] came out at 110%. Also, in data set [2], the IC50 stood at 206 nM.

With `CCOC(=O)Nc1cc(C(=O)OC)cc2c(C(C)=O)c(C)n(C)c12`, the inhibition in data set [1] is 99.8%; in [3] it was 17.6%.

On to `CCOC(=O)Nc1cc(C(=O)c2ccccc2)cc2c(C(C)=O)c(C)[nH]c12`, for which the inhibition at 1 µM in data set [4] was 66.8%. For the same compound, in data set [5], the viability at 48 h, 10 µM is 119%. For the same compound, the IC50 in data set [2] was determined as 743 nM.

Turning to `COC(=O)c1cc(NC(=O)c2ccccc2OC)c2[nH]c(C)c(C(C)=O)c2c1`, in [1], the inhibition is 28.3%.

In general, ΔTm refers to the change in melting temperature against a reference sample. As to `CCOC(=O)CNc1cc(C(=O)OC)cc2c(C(C)=O)c(C)[nH]c12`, the ΔTm in data set [6] came to 5.18 °C.

On to `CCOC(=O)Nc1cc(C(=O)NC2CCCC2)cc2c(C(C)=O)c(C)[nH]c12`, for which the IC50 in [2] was determined as 1830 nM.

Regarding `COC(=O)c1cc(NC(=O)c2ccc(Cl)cc2)c2[nH]c(C)c(C(C)=O)c2c1`, the thermal shift (ΔTm) in data set [6] came out at 1.92 °C.

As to `CCOC(=O)Nc1cc(-c2nccs2)cc2c(C(C)=O)c(C)[nH]c12`, the inhibition at 1 µM in [4] was 41.3%. Further, the viability at 48 h, 10 µM in data set [5] turned out to be 111%. Further, the IC50 in data set [2] came out at 294 nM.

On to `COC(=O)c1cc(NS(=O)(=O)c2ccccc2OC)c2[nH]c(C)c(C(C)=O)c2c1`, for which the figures for the inhibition in [1] and in data set [3] were 100% and 60%, respectively.

Turning to `CCOC(=O)Nc1cc(-c2ccncc2)cc2c(C(C)=O)c(C)[nH]c12`, in data set [4], the inhibition at 1 µM was 66.5%. In addition, the viability at 48 h, 10 µM in data set [5] was determined as 107%. In data set [2], the IC50 was determined as 109 nM.

Regarding `CCOC(=O)Nc1cc(C(=O)Nc2nccs2)cc2c(C(C)=O)c(C)[nH]c12`, the inhibition at 1 µM in [4] is 0%. In addition, the viability at 48 h, 10 µM in [5] worked out at 104%. For the same compound, the IC50 in data set [2] was found to be 309 nM.

Turning to `CC(=O)c1c(C)[nH]c2c(NC3CNC3)cc(-c3cccnc3)cc12`, the IC50 in data set [2] amounted to 3430 nM.

On to `COC(=O)c1cc(NC(=O)c2ccccc2)c2[nH]c(C)c(C(C)=O)c2c1`, for which the values for the inhibition in [1] and in data set [3] were 100% and 11.5%, respectively.

Consider `CC(=O)c1c(C)[nH]c2c(N(C)C)cc(-c3nccs3)cc12`, for which the inhibition at 1 µM in [4] is 44.1%. In [5], the viability at 48 h, 10 µM came out at 92.6%. Besides, the IC50 in data set [2] was 90 nM.

Take `COc1ccccc1C(=O)Nc1cc2c(cc1N1CCCC1)n(C)c(=O)n2C`: the inhibition was found to be 100% in data set [1] and 101% in [3].

As for `CCOC(=O)Nc1cc(C(=O)OC)cc2c(C(C)=O)c(C)[nH]c12`, the values for the inhibition in data set [1] and in [3] were 100% and 93.1%, respectively. Moreover, the IC50 in data set [2] stood at 558 nM. The ΔTm in data set [6] was determined as 5.39 °C.

`CCCC(=O)Nc1cc(C(=O)OC)cc2c(C(C)=O)c(C)[nH]c12`: the inhibition in data set [1] amounted to 100%; in data set [3] it was 38.5%.

`CC(=O)c1c(C)[nH]c2c(N(C)C)cc(-c3ccncc3)cc12`: the inhibition at 1 µM in [4] is 67.1%. For the same compound, the viability at 48 h, 10 µM in [5] was found to be 110%. Moreover, in data set [2], the IC50 stood at 70 nM.

As to `CCOC(=O)Nc1cc(C(=O)OC)cc2c(C(C)=O)c[nH]c12`, in [1], the inhibition is 13.1%.

As to `COC(=O)c1cc(NS(=O)(=O)c2ccccc2)c2[nH]c(C)c(C(C)=O)c2c1`, the inhibition was 100% in [1] and 18.3% in data set [3].

`CC(=O)c1c(C)[nH]c2c(N)cc(-c3cccnc3)cc12`: in data set [4], the inhibition at 1 µM is 0%. The viability at 48 h, 10 µM in [5] amounted to 109%. In [2], the IC50 is 1120 nM.

Regarding `COC(=O)c1cc(NC(=O)Nc2ccccc2OC)c2[nH]c(C)c(C(C)=O)c2c1`, the inhibition in [1] came to 91.9%.

`CCOC(=O)Nc1cc(-c2cccnc2)cc2c(C(C)=O)c(C)[nH]c12`: the result in data set [7], in data set [8], in data set [9], in [11], in [12] and in data set [13] was Active. Besides, the inhibition at 1 µM in [4] turned out to be 73.8%. The Activity result in data set [10], in data set [14], in data set [15] and in [16] was “Dose-Dependent Effect” each time. For the same compound, the viability at 48 h, 10 µM in data set [5] stood at 113%. For the same compound, the IC50 in [2] was determined as 102 nM; in data set [16] (C57BL/6, BMMC, 120 h) it was 190 nM.

`CCOC(=O)Nc1cc(-c2ccccn2)cc2c(C(C)=O)c(C)[nH]c12`: in data set [4], the inhibition at 1 µM is 38.8%. Moreover, the viability at 48 h, 10 µM in data set [5] came out at 110%. The IC50 in [2] was 109 nM.

As to `COc1ccccc1S(=O)(=O)Nc1cc(-c2cccnc2)cc2c(C(C)=O)c(C)[nH]c12`, the inhibition at 1 µM in data set [4] stood at 74.2%. In addition, in data set [5], the viability at 48 h, 10 µM was found to be 92.7%. Further, the IC50 in data set [2] was 1090 nM. In addition, in data set [16], the Activity entry is “Dose-Dependent Effect”.

As for `CC(=O)c1c(C)[nH]c2c(N(C)C)cc(-c3cccnc3)cc12`, in [4], the inhibition at 1 µM is 26.2%. Moreover, the viability at 48 h, 10 µM in [5] came out at 104%. Besides, in data set [2], the IC50 came to 173 nM.

Source of the values: ChEMBL document CHEMBL5329201, “Development of 3-acetylindole derivatives that selectively target BRPF1 as new inhibitors of receptor activator of NF-κB ligand (RANKL)-Induced osteoclastogenesis” (Bioorg Med Chem, 2023).
